Columns and labels:
[1] = system: panel of seven bacterial strains; experiment: Antibacterial growth assay (OD600), statements on the whole panel; type: cell-based; details: growth after 48 h
[2] = system: Escherichia coli BL21(DE3); experiment: Antibacterial growth assay (OD600); details: for Bacterial growth relative to medium, E. coli, replicate 1 / Bacterial growth relative to medium, E. coli, replicate 2 / Bacterial growth relative to medium, E. coli, replicate 3: OD600, medium = 100, MH II broth, 37 °C, peptide 200 µM mixed 50 µL + 50 µL with bacteria, Figure 7: 48 h; for Bacterial growth relative to medium, E. coli, replicate 1: replicate column 1; for Bacterial growth relative to medium, E. coli, replicate 2: replicate column 2; for Bacterial growth relative to medium, E. coli, replicate 3: replicate column 3
[3] = system: Pseudomonas aeruginosa DSM 50071; experiment: Antibacterial growth assay (OD600); details: OD600, medium = 100, MH II broth, 37 °C, peptide 200 µM mixed 50 µL + 50 µL with bacteria, Figure 7: 48 h; for Bacterial growth relative to medium, P. aeruginosa (50071), replicate 1: replicate column 1; for Bacterial growth relative to medium, P. aeruginosa (50071), replicate 2: replicate column 2; for Bacterial growth relative to medium, P. aeruginosa (50071), replicate 3: replicate column 3
[4] = system: Listeria monocytogenes DSM 20600; experiment: Antibacterial growth assay (OD600); details: for Bacterial growth relative to medium, L. monocytogenes, replicate 1 / Bacterial growth relative to medium, L. monocytogenes, replicate 2 / Bacterial growth relative to medium, L. monocytogenes, replicate 3: OD600, medium = 100, MH II broth, 37 °C, peptide 200 µM mixed 50 µL + 50 µL with bacteria, Figure 7: 48 h; for Bacterial growth relative to medium, L. monocytogenes, replicate 1: replicate column 1; for Bacterial growth relative to medium, L. monocytogenes, replicate 2: replicate column 2; for Bacterial growth relative to medium, L. monocytogenes, replicate 3: replicate column 3
A/Hessen/1/2003 (H3N2) = type: cell-based, influenza virus
[5] = system: B/Malaysia/2506/2004 (B-Mal); type: cell-based, influenza virus
[6] = system: Staphylococcus aureus DSM 2569; experiment: Antibacterial growth assay (OD600); details: for Bacterial growth relative to medium, S. aureus, replicate 1 / Bacterial growth relative to medium, S. aureus, replicate 2 / Bacterial growth relative to medium, S. aureus, replicate 3: OD600, medium = 100, MH II broth, 37 °C, peptide 200 µM mixed 50 µL + 50 µL with bacteria, Figure 7: 48 h; for Bacterial growth relative to medium, S. aureus, replicate 1: replicate column 1; for Bacterial growth relative to medium, S. aureus, replicate 2: replicate column 2; for Bacterial growth relative to medium, S. aureus, replicate 3: replicate column 3
[7] = system: Pseudomonas aeruginosa DSM 1117; experiment: Antibacterial growth assay (OD600); details: OD600, medium = 100, MH II broth, 37 °C, peptide 200 µM mixed 50 µL + 50 µL with bacteria, Figure 7: 48 h; for Bacterial growth relative to medium, P. aeruginosa (1117), replicate 1: replicate column 1; for Bacterial growth relative to medium, P. aeruginosa (1117), replicate 2: replicate column 2; for Bacterial growth relative to medium, P. aeruginosa (1117), replicate 3: replicate column 3
A/Hamburg/05/2009 (H1N1) = type: cell-based, influenza virus
[8] = system: Micrococcus luteus DSM 20030; experiment: Antibacterial growth assay (OD600); details: for Antibacterial activity (in words): M. luteus DSM 20030, growth after 48 h; for Bacterial growth relative to medium, M. luteus, replicate 1 / Bacterial growth relative to medium, M. luteus, replicate 2 / Bacterial growth relative to medium, M. luteus, replicate 3: OD600, medium = 100, MH II broth, 37 °C, peptide 200 µM mixed 50 µL + 50 µL with bacteria, Figure 7: 48 h; for Bacterial growth relative to medium, M. luteus, replicate 1: replicate column 1; for Bacterial growth relative to medium, M. luteus, replicate 2: replicate column 2; for Bacterial growth relative to medium, M. luteus, replicate 3: replicate column 3
Procedure: (§1) Cryo-conserved cultures of selected bacterial strains (Table 4) were transferred to Tryptic Soy Agar (TSA) plates (Carl Roth) with a sterile inoculation loop, sealed with Parafilm (BEMIS, Neenah, WI, USA), and incubated for 1–2 days at 37 °C depending on growth. Single colonies were picked and transferred into 2–3 mL of the Mueller–Hinton II (MH II) broth (BD, Heidelberg, Germany). The bacteria were cultivated overnight, subcultured on fresh medium and grown for 3–4 h before testing at 37 °C, with shaking at 180 rpm. We measured the optical density at 600 nm (OD600) of 1 mL of the bacterial suspensions in polystyrene cuvettes (SARSTED, Nümbrecht, Germany) using an Ultrospec 10 spectrophotometer (Biochrome, Cambridge, UK). We then diluted them with the MH II medium to the preferred OD600 (Table 2). The peptides were dissolved in DMSO to generate 10 mmol/L stocks and diluted with the MH II medium to 200 µM before the assay. We used 10 µg/mL (~40 µg/mL for S. epidermidis) gentamicin and colistin (Sigma-Aldrich, Taufkirchen, Germany), DMSO and the medium only as controls. The bacteria were transferred to 96-multiwell plates with a final volume of 100 µL per well (50 µL bacterial suspension, and 50 µL test peptide). The OD600 was measured at 0, 24 and 48 h using a BioTek Eon microplate reader followed by analysis with Gen5 v2.09.

[9] = system: Staphylococcus epidermidis DSM 28319; experiment: Antibacterial growth assay (OD600); details: for Bacterial growth relative to medium, S. epidermidis, replicate 1 / Bacterial growth relative to medium, S. epidermidis, replicate 2 / Bacterial growth relative to medium, S. epidermidis, replicate 3: OD600, medium = 100, MH II broth, 37 °C, peptide 200 µM mixed 50 µL + 50 µL with bacteria, Figure 7: 48 h; for Bacterial growth relative to medium, S. epidermidis, replicate 1: replicate column 1; for Bacterial growth relative to medium, S. epidermidis, replicate 2: replicate column 2; for Bacterial growth relative to medium, S. epidermidis, replicate 3: replicate column 3
Procedure: as §1

Sequence	Antibacterial activity over the panel (in words) [1]	Bacterial growth relative to medium, E. coli, replicate 1 [2]	Bacterial growth relative to medium, E. coli, replicate 2 [2]	Bacterial growth relative to medium, E. coli, replicate 3 [2]	Bacterial growth relative to medium, P. aeruginosa (50071), replicate 1 [3]	Bacterial growth relative to medium, P. aeruginosa (50071), replicate 2 [3]	Bacterial growth relative to medium, P. aeruginosa (50071), replicate 3 [3]	Bacterial growth relative to medium, L. monocytogenes, replicate 1 [4]	Bacterial growth relative to medium, L. monocytogenes, replicate 2 [4]	Bacterial growth relative to medium, L. monocytogenes, replicate 3 [4]	Viability of infected cells relative to aprotinin, Replicate 1 (A/Hessen/1/2003 (H3N2))	Viability of infected cells relative to aprotinin, Replicate 2 (A/Hessen/1/2003 (H3N2))	Viability of infected cells relative to aprotinin, Replicate 3 (A/Hessen/1/2003 (H3N2))	Viability of infected cells relative to aprotinin, Replicate 1 [5]	Viability of infected cells relative to aprotinin, Replicate 2 [5]	Viability of infected cells relative to aprotinin, Replicate 3 [5]	Bacterial growth relative to medium, S. aureus, replicate 1 [6]	Bacterial growth relative to medium, S. aureus, replicate 2 [6]	Bacterial growth relative to medium, S. aureus, replicate 3 [6]	Bacterial growth relative to medium, P. aeruginosa (1117), replicate 1 [7]	also measured
SLLGLLDVVKNTVGQTG [LS-AMP-A9]	inhibited the growth of most of the bacteria except two	70.1329	70.7996	35.5653	97.5053	110.589	87.613	56.5719	67.4623	66.1408	0.1782	0.2232	0.05605	0.09007	0.06966	0.05846	57.4133	67.8221	95.0991	56.3665	Antibacterial activity (in words) ([2]; E. coli BL21(DE3), growth after 48 h): able to decrease the growth; Antibacterial activity (in words) ([4]; L. monocytogenes DSM 20600, growth after 48 h): able to decrease the growth; Antibacterial activity (in words) ([6]; S. aureus DSM 2569, growth after 48 h): able to decrease the growth; Bacterial growth relative to medium, P. aeruginosa (1117), replicate 2 [7]: 70.6926; Bacterial growth relative to medium, P. aeruginosa (1117), replicate 3 [7]: 77.8728; Viability of infected cells relative to aprotinin, Replicate 1 (A/Hamburg/05/2009 (H1N1)): 0.04771; Viability of infected cells relative to aprotinin, Replicate 2 (A/Hamburg/05/2009 (H1N1)): 0.03968; Viability of infected cells relative to aprotinin, Replicate 3 (A/Hamburg/05/2009 (H1N1)): 0.02362; Antibacterial activity (in words) [8]: able to decrease the growth; Bacterial growth relative to medium, M. luteus, replicate 1 [8]: 52.4959; Bacterial growth relative to medium, M. luteus, replicate 2 [8]: 91.4416; Bacterial growth relative to medium, M. luteus, replicate 3 [8]: 32.7594; Bacterial growth relative to medium, S. epidermidis, replicate 1 [9]: 52.3672; Bacterial growth relative to medium, S. epidermidis, replicate 2 [9]: 52.2824; Bacterial growth relative to medium, S. epidermidis, replicate 3 [9]: 65.3172; Antibacterial activity (in words) ([9]; S. epidermidis DSM 28319, growth after 48 h): able to decrease the growth
SLLGLLDVVKNTVGQTGLL [LS-AMP-A8]	inhibited the growth of most of the bacteria except two	91.7388	101.043	53.4577	99.79	113.132	91.0686	57.9391	71.2645	69.2971	0.08185	0.1031	0.0008759	0.03065	0.0169	0.06181	67.0732	73.4467	85.2226	76.1322	Bacterial growth relative to medium, P. aeruginosa (1117), replicate 2 [7]: 81.7612; Bacterial growth relative to medium, P. aeruginosa (1117), replicate 3 [7]: 75.3667; Viability of infected cells relative to aprotinin, Replicate 1 (A/Hamburg/05/2009 (H1N1)): 0.02555; Viability of infected cells relative to aprotinin, Replicate 2 (A/Hamburg/05/2009 (H1N1)): 0.01502; Viability of infected cells relative to aprotinin, Replicate 3 (A/Hamburg/05/2009 (H1N1)): 0.01283; Antibacterial activity (in words) [8]: no activity; Bacterial growth relative to medium, M. luteus, replicate 1 [8]: 72.2222; Bacterial growth relative to medium, M. luteus, replicate 2 [8]: 103.716; Bacterial growth relative to medium, M. luteus, replicate 3 [8]: 73.0273; Bacterial growth relative to medium, S. epidermidis, replicate 1 [9]: 79.7615; Bacterial growth relative to medium, S. epidermidis, replicate 2 [9]: 73.3026; Bacterial growth relative to medium, S. epidermidis, replicate 3 [9]: 77.5582

Source: PMC10221074, “Functional Profiling of the A-Family of Venom Peptides from the Wolf Spider Lycosa shansia” (Toxins, 2023)
